Measured values: ChEMBL document CHEMBL5308504, “Tm Shift (DSF) assay results for EUbOPEN Chemogenomics Library” (2023)
Values joined by “and” are separate entries in the source; they are usually repeats but may differ in a detail not shown here. Equal entries are not always repeated.

Tests used:
Peregrin (Homo sapiens) = biological target: T1, Peregrin (Homo sapiens) (UniProt P55201); settings: Compound concentration 20.0 uM, Protein concentration 2.0 uM, Result type QC Liability
T1 sequence (whole entry): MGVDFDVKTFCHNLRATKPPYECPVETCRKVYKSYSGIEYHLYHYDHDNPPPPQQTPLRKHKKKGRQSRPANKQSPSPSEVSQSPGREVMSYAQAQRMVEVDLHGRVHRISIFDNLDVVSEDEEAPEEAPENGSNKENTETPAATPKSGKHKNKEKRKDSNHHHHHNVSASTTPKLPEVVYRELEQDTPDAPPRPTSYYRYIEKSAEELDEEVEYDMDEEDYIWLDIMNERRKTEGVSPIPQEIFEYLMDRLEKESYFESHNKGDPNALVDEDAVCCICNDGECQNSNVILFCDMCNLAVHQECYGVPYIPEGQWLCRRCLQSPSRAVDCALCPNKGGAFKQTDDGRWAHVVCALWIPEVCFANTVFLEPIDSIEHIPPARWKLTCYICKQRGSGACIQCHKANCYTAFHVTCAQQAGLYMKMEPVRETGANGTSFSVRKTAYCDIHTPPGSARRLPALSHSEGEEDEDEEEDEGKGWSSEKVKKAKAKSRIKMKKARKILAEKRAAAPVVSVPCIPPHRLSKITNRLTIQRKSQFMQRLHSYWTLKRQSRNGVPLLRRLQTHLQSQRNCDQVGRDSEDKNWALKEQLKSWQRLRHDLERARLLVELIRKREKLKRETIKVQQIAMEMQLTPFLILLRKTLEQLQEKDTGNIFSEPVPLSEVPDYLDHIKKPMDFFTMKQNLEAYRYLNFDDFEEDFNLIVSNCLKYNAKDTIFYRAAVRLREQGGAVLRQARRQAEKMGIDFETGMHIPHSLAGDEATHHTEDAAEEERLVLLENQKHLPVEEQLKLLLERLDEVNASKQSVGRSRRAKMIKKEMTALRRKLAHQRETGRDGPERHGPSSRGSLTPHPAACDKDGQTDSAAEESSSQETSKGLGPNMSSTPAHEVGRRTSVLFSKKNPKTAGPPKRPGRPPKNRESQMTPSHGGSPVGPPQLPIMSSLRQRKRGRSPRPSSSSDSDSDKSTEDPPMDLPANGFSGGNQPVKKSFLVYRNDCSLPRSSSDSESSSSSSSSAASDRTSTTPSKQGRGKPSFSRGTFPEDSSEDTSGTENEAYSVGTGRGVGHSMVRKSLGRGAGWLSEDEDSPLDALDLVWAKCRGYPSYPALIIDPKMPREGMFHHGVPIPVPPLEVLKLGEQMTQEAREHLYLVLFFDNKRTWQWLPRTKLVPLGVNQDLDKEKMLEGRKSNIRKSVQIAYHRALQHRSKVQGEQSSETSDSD

[1] = biological target: Fibroblast growth factor receptor 3 (Homo sapiens) (UniProt P22607); settings: Compound concentration 20.0 uM, Protein concentration 2.0 uM, Result type QC Liability
Sequence of Fibroblast growth factor receptor 3 (Homo sapiens) (P22607 23-806 limits assumed): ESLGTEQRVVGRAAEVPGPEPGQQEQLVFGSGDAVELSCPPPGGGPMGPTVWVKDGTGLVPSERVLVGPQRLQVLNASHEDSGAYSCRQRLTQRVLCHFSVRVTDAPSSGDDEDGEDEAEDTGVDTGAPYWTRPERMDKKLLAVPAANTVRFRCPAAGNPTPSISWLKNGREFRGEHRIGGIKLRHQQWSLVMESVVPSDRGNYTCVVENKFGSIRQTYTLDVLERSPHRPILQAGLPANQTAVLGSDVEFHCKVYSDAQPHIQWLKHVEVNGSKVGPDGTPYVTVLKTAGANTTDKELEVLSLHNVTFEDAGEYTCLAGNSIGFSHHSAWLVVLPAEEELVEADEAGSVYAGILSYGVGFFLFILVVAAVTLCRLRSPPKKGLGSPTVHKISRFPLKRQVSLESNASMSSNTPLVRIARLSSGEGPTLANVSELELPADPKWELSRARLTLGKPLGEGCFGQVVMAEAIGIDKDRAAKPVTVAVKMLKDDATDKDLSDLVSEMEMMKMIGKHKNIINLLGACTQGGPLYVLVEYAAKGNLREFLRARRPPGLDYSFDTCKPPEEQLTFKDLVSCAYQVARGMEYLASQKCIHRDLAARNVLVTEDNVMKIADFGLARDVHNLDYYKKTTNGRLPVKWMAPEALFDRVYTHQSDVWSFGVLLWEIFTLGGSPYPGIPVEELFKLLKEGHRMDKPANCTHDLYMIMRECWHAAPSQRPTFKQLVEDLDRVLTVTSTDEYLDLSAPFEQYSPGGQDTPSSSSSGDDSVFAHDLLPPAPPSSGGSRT
Description: Thermal Shift Assay. Domain: start/stop: P449-E759

Row | SMILES | ΔTm (Peregrin (Homo sapiens)) | ΔTm [1]
1 | CC(=O)Nc1nc(C)c(S(=O)(=O)Nc2ccc(C(O)(C(F)(F)F)C(F)(F)F)cc2)s1 | -0.9 °C | 0.63 °C
2 | CO[C@H]1C[C@@H]2CC[C@@H](C)[C@@](O)(O2)C(=O)C(=O)N2CCCC[C@H]2C(=O)O[C@H]([C@H](C)C[C@@H]2CC[C@@H](O)[C@H](OC)C2)CC(=O)[C@H](C)/C=C(\C)[C@@H](O)[C@@H](OC)C(=O)[C@H](C)C[C@H](C)/C=C/C=C/C=C/1C | -1.78 °C | 0.26 °C
3 | Oc1c(-c2cccnc2)cnn1-c1ccccn1 | -1.78 °C | 0.56 °C
4 | CCCCCNC(=O)N1CCC(CN(Cc2ccc(Cl)cc2)Cc2ccc([N+](=O)[O-])s2)C1 (centres undefined) | -0.19 °C | 0.77 °C
5 | N#CN1CC[C@@H](C(=O)Nc2nc3c(s2)CN(C(=O)CN=[N+]=[N-])CC3)C1 | -1.31 °C | 0.98 °C
6 | CN(C)CC#Cc1ccc2[nH]c3c(c2c1)-c1nc(N)ncc1CCC3 | -0.87 °C | 3.51 °C
7 | COc1cc(C(=O)NC2CCN(C)CC2)ccc1Nc1ncc(C(F)(F)F)c(NCc2ccc(C)cc2N(C)S(C)(=O)=O)n1 | -1.4 °C | 2.55 °C
8 | CC(=O)c1ccc2c(c1)/C(=C(/NC1CCN(C)CC1)c1ccc3c(c1)OCO3)C(=O)N2 | -1.44 °C | 0.39 °C
9 | CC1CN(CC(=O)N2CC(C)(C)c3nc(CO)c(Cc4ccc(F)cc4)cc32)C(CN2CCOCC2C)CN1 (centres undefined) | -1.08 °C | 0.81 °C
10 | CN1CCN(C(=O)c2ccc3cc2OCCOCCNc2ccn4ncc-3c4n2)CC1 | -1.15 °C | 2.23 °C
11 | CC[C@H](NC(=O)[C@H](C)NC)C(=O)N1C[C@@H](O)C[C@H]1Cc1c(-c2[nH]c3cc(F)ccc3c2C[C@@H]2C[C@H](O)CN2C(=O)[C@H](CC)NC(=O)[C@H](C)NC)[nH]c2cc(F)ccc12 | -1.75 °C | 0.75 °C
12 | FC(F)c1cncc(-c2ccc3ncc4nnc(C5=CCCOCC5)n4c3c2)c1 | -2.16 °C | 0.51 °C
13 | C=CC[C@@H]1/C=C(\C)C[C@H](C)C[C@H](OC)[C@H]2O[C@@](O)(C(=O)C(=O)N3CCCC[C@H]3C(=O)O[C@H](/C(C)=C/[C@@H]3CC[C@@H](O)[C@H](OC)C3)[C@H](C)[C@@H](O)CC1=O)[C@H](C)C[C@@H]2OC | -3.28 °C | 0.4 °C
14 | O=C(Nc1snnc1C(=O)Nc1ccc(N2CCCC2)cc1)c1cncc(C(F)(F)F)c1 | 0.2 °C | 0.45 °C
15 | NCC1CCC(CNc2nc(NCc3ccccc3OC(F)(F)F)ncc2[N+](=O)[O-])CC1 (centres undefined) | 0.06 °C | 0.5 °C
16 | C[C@]12CC[C@@H]3c4ccc(C(N)=O)cc4CC[C@H]3[C@@H]1CC=C2c1cncc(F)c1 | -4.27 °C | 0.92 °C
17 | CCc1cc2c(cc1N1CCC(N3CCOCC3)CC1)C(C)(C)c1[nH]c3cc(C#N)ccc3c1C2=O | -1 °C | 0.56 °C
18 | NC(=O)c1sc2nc(N3CCC(NC[C@H](O)c4ccccn4)CC3)cc(C(F)(F)F)c2c1N | -0.86 °C | 1.99 °C
19 | COc1ccc(CC[C@@H](OC(=O)[C@@H]2CCCCN2C(=O)[C@H](c2cc(OC)c(OC)c(OC)c2)C2CCCCC2)c2cccc(OCCN3CCOCC3)c2)cc1OC | -5.77 °C | -3.93 °C
20 | COc1cc(-c2cn(C)c(=O)c3cnccc23)cc(OC)c1CN(C)C | 1.79 °C | 0.44 °C
21 | CC1CCN(C(=O)[C@@H](CCn2cccc2C#N)NS(=O)(=O)c2cccc3[nH]ccc23)CC1 | -3.16 °C | 0.36 °C
22 | Clc1ccccc1C(c1ccccc1)(c1ccccc1)n1cccn1 | -3.65 °C | 0.25 °C
23 | COc1cc(O)c(C(CC(=O)N2C[C@H](C)C[C@H](C)C2)c2ccc3c(c2)OCO3)c(OC)c1 (some centres undefined) | 1.95 °C | 0.97 °C
24 | COc1cc(-c2cc3ncccc3c(O[C@H](C)[C@H]3CNC(=O)C3)n2)cc(OC)c1OC | -2.14 °C and -1.33 °C | 1.61 °C and 1.56 °C
25 | CCS(=O)(=O)Nc1cccc(Oc2cncc(Nc3ccc(I)cc3F)c2C(N)=O)c1 | -2.79 °C | 1.17 °C
26 | CCN(CC)CCO[C@H]1CC[C@@]2(C)C(=CC[C@@H]3[C@@H]2CC[C@]2(C)C(=O)CC[C@@H]32)C1 | -0.77 °C | 0.44 °C

Row | SMILES | ΔTm (Peregrin (Homo sapiens)) | ΔTm [1]
27 | CNC(=O)c1ccc2c(c1)NC(=O)/C2=C(\Nc1ccc(CN2CCCCC2)cc1)c1ccccc1 | -0.66 °C | 3.97 °C
28 | OC(c1ccc(-c2ccc(CN3CCN(Cc4ccncc4)CC3)cc2)c(F)c1)(C(F)(F)F)C(F)(F)F | -2.07 °C | 0.64 °C
29 | O=C(O)c1ccc(OCCCc2ccc(OCCCCOC3CCCCC3)cc2)c(C(=O)NC2CCCC(C(=O)O)C2)c1 (centres undefined) | -4.19 °C | 0.54 °C
30 | CC(C)c1cnn2c(NCc3ccccc3)cc(NCCCCCCN)nc12 | -0.13 °C | 0.86 °C
31 | CC(C)(O)[C@H](F)CN1Cc2cc(NC(=O)c3cnn4cccnc34)c(N3CCOCC3)cc2C1=O | -1.78 °C | 2.76 °C
32 | NC(=O)c1ccccc1Nc1nc(-c2ccc(N3CCOCC3)cc2)cc2ncccc12 | -0.11 °C | 4.32 °C
33 | COc1ccc(-c2cc3c(C)nc(N)nc3n([C@H]3CC[C@H](OCCO)CC3)c2=O)cn1 | 0.08 °C | 0.24 °C
34 | CN1CCC(C#N)(NC(=O)[C@@H](NC(=O)N2CCOCC2)C(C)(C)C)CC1 | -2.33 °C | 0.67 °C
35 | Nc1ncnc2c1c(I)cn2[C@@H]1O[C@H](CO)[C@@H](O)[C@H]1O | -1.79 °C | 3.13 °C
36 | CCCCc1oc2ccccc2c1C(=O)c1cc(I)c(OCCN(CC)CC)c(I)c1 | -1.31 °C | 0.79 °C
37 | CC(=O)Nc1nc(CN2CCC[C@H](Cc3cc(C)nc(C)c3)C2)cs1 | -1.25 °C | 0.78 °C
38 | CC/C(=C(\c1ccccc1)c1ccc(OCCN(C)C)cc1)c1ccccc1 | -3.71 °C | 0.3 °C
39 | CC(C)[C@H](CO)Nc1nc(Nc2ccc(C(=O)O)c(Cl)c2)c2ncn(C(C)C)c2n1 | 0.06 °C | 4.45 °C
40 | Cc1[nH]c2c(N3CCCCC3)c(-c3ccccc3)nn2c(=O)c1-c1ccc(O)cc1 | -2.87 °C | 0.67 °C
41 | C[S+]([O-])c1ccc(-c2nc(-c3cccc(I)c3)c(-c3ccncc3)[nH]2)cc1 (centres undefined) | -1.44 °C | -1.51 °C
42 | COc1cc2c(cc1CC=C(C)C)C(=O)C[C@@H](c1ccc(O)cc1)O2 | 1.25 °C | 2.85 °C
43 | CCOc1cc(CC(=O)N[C@@H](CC(C)C)c2ccccc2N2CCCCC2)ccc1C(=O)O | -3.67 °C | 0.18 °C
44 | CC(C)(C)OC(=O)CN1C(=O)c2c(OCC(=O)O)cccc2Oc2ccc(C(F)(F)F)cc21 | -3.16 °C | 0.75 °C
45 | Cc1ccc(C(=O)Nc2cc(N3CCN(C)CC3)cc(C(F)(F)F)c2)cc1-n1cc(-c2cnn(C)c2C)nn1 | -0.61 °C | 3.8 °C
46 | Cc1cccc(-c2nn3c(c2-c2ccnc4ccc(C(N)=O)cc24)CCC3)n1 | -0.93 °C | 1.13 °C
47 | Cc1nc(Nc2cnn(C3CCNCC3)c2)nc2c1N(C)C(=O)c1cc3ccccc3cc1N2C | -2.69 °C | 1.22 °C
48 | Cc1ncc(C(=O)Nc2cc(C(C)(C)C)on2)cc1-n1cc(-c2cnn(C)c2C)nn1 | 0.08 °C | 2.95 °C
49 | CCCN1CCC(C#N)(NC(=O)[C@H](CC(C)(C)C)NC(=O)N2CCOCC2)CC1 | -2.18 °C | 0.37 °C
50 | O=C(NCCS(=O)(=O)c1ccc(C(F)(F)F)cn1)c1ccc(Cl)cc1 | -0.99 °C | 0.38 °C
51 | Cc1cc(CN(CC(=O)Nc2ccc(Cl)cc2Cl)C2CCCCC2)ccc1OCC(=O)O | -6.07 °C | -0.33 °C
52 | C=CC(=O)Nc1cccc(C)c1Nc1ncc2cc(-c3c(Cl)c(OC)cc(OC)c3Cl)ccc2n1 | -0.73 °C | 1.71 °C
